From patent EP0728738A1, “Tetralinyl- and indanyl-ethylamides having melatonergic activity” (BRISTOL-MYERS SQUIBB COMPANY, priority 1995, dated 1996)
pIC50: −log10 of the molar value.

Tests used:
[1] = biological target: ML1 Receptor; test: Melatonergic binding at the ML1 receptor in rabbit tissue (2-[125I]-iodomelatonin displacement, parietal cortex homogenate); details: 2-[125I]-iodomelatonin 44pM, 37°C for 1 hour, read-out: Binding Affinity IC50
Protocol: Example 46: Measurement of Melatonergic Binding at the ML1 Receptor in Rabbit Tissue
• 1. Reagents • (a) 50mM Tris buffer containing 12.5 mM MgCl2, and 2mM EDTA (pH 7.4 at 37 °C). • (b) Wash buffer: 20mM Tris base containing 2mM MgCl2 (pH 7.4 at room temperature). • (c) 6-Chloromelatonin (10-^5M final concentration). • (d) 2-[^125I]-iodomelatoin, 44pM final concentration Source: NEN • 2. Tissue preparation. Male New Zealand white rabbits (Hazelton Research) are decapitated, the brains are rapidly removed and chilled. The parietal cortex is crudely dissected and frozen on dry ice with tissue stored at - 80 °C until assayed. Tissue is weighed and thawed in 20 mls ice cold Tris buffer (a) and homogenized by treatment with a polytron for 10 seconds at setting 17. Ice cold Tris (a) is added to a volume of 40 mls. The homogenate is centrifuged. The resulting supernatant is decanted and discarded. The pellet is rehomogenized in an additional 20 mls of Tris, diluted and centrifuged. The supernatant is decanted and discarded. The resulting pellet is homogenized in 20 volumes of Tris per gram of original tissue (a 1:20 homogenate), chilled, and held on ice until assayed. • 3. Incubation: 37 °C for 1 hour. Reaction is terminated by filtration. • 4. […] References: Stankov, B., Cozzi, B., Lucini, V., Fumagalli, P., Scaglione, F. and F. Fraschini. Characterization and mapping of melatonin receptors in the brain of three mammalian species: Rabbit, horse, and sheep. Neuroendocrinology 53: 214-221, 1991.

[2] = biological target: T1, Human Melatonin Receptor ML1A (Homo sapiens, UniProt P48039); test: Melatonergic binding at the human melatonin receptor ML1A (2-[125I]-iodomelatonin displacement, membranes of transfected COS-1 cells); details: human ML1A in COS-1 cell membranes, 2-[125I]-iodomelatonin 100 pM, 37°C for 1 hour; read-out: Binding Affinity IC50
T1 construct: expressed in transfected cells; host or cells: COS-1 cells, pcDNAI vector, DEAE-dextran transfection
T1 sequence (P48039 whole entry): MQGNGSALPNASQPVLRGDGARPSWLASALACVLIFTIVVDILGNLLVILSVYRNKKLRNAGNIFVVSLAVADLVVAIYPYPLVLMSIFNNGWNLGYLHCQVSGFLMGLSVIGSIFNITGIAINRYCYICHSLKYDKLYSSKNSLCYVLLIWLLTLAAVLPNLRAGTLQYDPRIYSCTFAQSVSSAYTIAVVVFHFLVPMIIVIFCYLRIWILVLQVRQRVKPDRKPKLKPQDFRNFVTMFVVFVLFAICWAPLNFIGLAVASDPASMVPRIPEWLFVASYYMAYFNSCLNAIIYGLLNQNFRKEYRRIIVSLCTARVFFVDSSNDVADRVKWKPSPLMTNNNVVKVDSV
Protocol: Example 47: Measurement of Melatonergic Binding at the Human Melatonin Receptor ML1A
• 1. Reagents: • (a) 50mM Tris buffer containing 12.5 mM MgCl2, and 2mM EDTA, pH 7.4 at 37 °C with concentrated HCl. • (b) Wash buffer: 20mM Tris base containing 2mM MgCl2. pH 7.4 at room temperature. • (c) 10^-4M 6-Chloromelatonin (10-^5M final concentration). • (d) 2-[^125I]-iodomelatonin, 100 pM final concentration Source: NEN • 2. Membrane preparation: The cDNA (human ML1A) in pcDNAI was introduced into COS-1 cells by the DEAE-dextran method. Three days after transfection, the media was removed, the plates washed with phosphate buffered saline, the cells removed using Hank's balanced salt solution and pelleted. For preparing membrane homogenates, pellets are thawed on ice, and resuspended in TME buffer, 50 mM Tris base, 12.5 mM MgCl2, 1 mM EDTA (pH7.4 at 37°C with concentrated HCL), supplemented with 10 µg/ml aprotinin and leupeptin, and 100 µM phenylmethlysulfonylfluoride. The cells were then homogenized using a dounce homogenizer, and centrifuged. The resulting pellet was resuspended with a dounce homogenizer in TME and frozen. On the day of assay, the small aliquot was thawed on ice and resuspended in TME buffer. • 3. Incubation: 37 °C for 1 hour. Reaction is terminated by filtration. • 4. […] Reference: Reppert, S. M., Weaver, D. R., and Ebisawa, R. (1994), Neuron, 13, 1177-1185.

Row | pIC50 [1] | pIC50 [2] | Compound
1 | 6.30 to 7.00 |  | COc1ccc2c(c1)C(CCNC(C)=O)CC2(C)C (centres unmarked) [Example 32, N-[2-(2,3-Dihydro-6-methoxy-3,3-dimethyl-1H-inden-1-yl)ethyl]acetamide]
2 |  | 6.30 to 7.00 | CCCC(=O)NCCC1CCc2ccc(OC)cc21 (single isomer, unassigned; (+)) [Example 37]
3 | > 7.00 |  | COc1ccc2c(c1)C(CCNC(C)=O)CCC2 (centres unmarked) [Example 4, N-[2-(7-Methoxy-1,2,3,4-tetrahydro-1-naphthalenyl)ethyl]acetamide]
4 | > 7.00 |  | COc1ccc2c(c1)C(CCNC(=O)C1CC1)CCC2 (centres unmarked) [Example 3, N-[2-(7-Methoxy-1,2,3,4-tetrahydro-1-naphthalenyl)ethyl]cyclopropane carboxamide]
5 | > 7.00 |  | COCC(=O)NCCC1CCCc2ccc(OC)cc21 (centres unmarked) [Example 16, N-[2-(7-Methoxy-1,2,3,4-tetrahydro-1-naphthalenyl)ethyl]-2-methoxyacetamide]
6 | > 7.00 |  | CCCC(=O)NCCC1CCc2ccc(OC)cc21 (centres unmarked) [Example 22, N-[2-(2,3-Dihydro-6-methoxy-1H-inden-1-yl)-ethyl]butanamide]
7 | > 7.00 |  | CCCC(=O)NCCC1CCc2ccc(C(=O)OC)cc21 (centres unmarked) [Example 42, N-[2-(2,3-Dihydro-6-methoxycarbonyl-1H-inden-1-yl)ethyl]butanamide]
8 | 6.30 to 7.00 |  | CCCC(=O)NCCC1CC(C)(C)c2ccc(OC)cc21 (centres unmarked) [Example 33, N-[2-(2,3-Dihydro-6-methoxy-3,3-dimethyl-1H-inden-1-yl)ethyl]butanamide]
9 | > 7.00 |  | COc1ccc2c(c1)C(CCNC(C)=O)CC2 (centres unmarked) [Example 25, N-[2-(2,3-Dihydro-6-methoxy-1H-inden-1-yl)-ethyl]acetamide]
10 | > 7.00 |  | CCCC(=O)NCCC1CCCc2ccc(OC)cc21 (centres unmarked) [Example 1, N-[2-(7-Methoxy-1,2,3,4-tetrahydro-1-naphthalenyl)ethyl]butanamide]
11 |  | > 7.00 | CCCC(=O)NCCC1CCc2ccc(OC(F)F)cc21 (centres unmarked) [Example 45, N-[2-(6-Difluoromethoxy-2,3-dihydro-1H-inden-1-yl)ethyl]butanamide]
12 | > 7.00 |  | CCCC(=O)NCCC1CCc2ccc(F)cc21 (centres unmarked) [Example 31, N-[2-(6-Fluoro-2,3-dihydro-1H-inden-1-yl)ethyl]butanamide]
13 | > 7.00 |  | COc1ccc2c(c1)C(CCNC(=O)C1CC1)CC2 (centres unmarked) [Example 24, N-[2-(2,3-Dihydro-6-methoxy-1H-inden-1-yl)-ethyl]cyclopropane carboxamide]
14 | > 7.00 | > 7.00 | COCC(=O)NCCC1CCCc2ccc(OC)cc21 (single isomer, unassigned; (-)) [Example 38, (-)-N-[2-(1,2,3,4-tetrahydro-7-methoxynaphthalen-1-yl)ethyl] methoxyacetamide]
15 |  | > 7.00 | CCCCCCCCCCCCOc1ccc2c(c1)C(CCNC(=O)CCC)CC2 (centres unmarked) [Example 43, N-[2-(2,3-Dihydro-6-dodecyloxy-1H-inden-1-yl)ethyl]butanamide]
16 | > 7.00 | > 7.00 | CCCC(=O)NCCC1CCc2ccc(OC)cc21 (single isomer, unassigned; (-)) [Example 36]
17 | > 7.00 | ≤ 6.30 | COCC(=O)NCCC1CCCc2ccc(OC)cc21 (single isomer, unassigned; (+)) [Example 39, (+)-N-[2-(1,2,3,4-tetrahydro-7-methoxynaphthalen-1-yl)ethyl] methoxyacetamide]
